{
  "source": "PubChem BioAssay AID248",
  "about": "(DTP/NCI, 2004)",
  "system": "L1210 leukemia ip in BDF1 mice, survival T/C",
  "test": "NCI In Vivo Anticancer Drug Screen. Data for tumor model L1210 Leukemia (intraperitoneal) in B6D2F1 (BDF1) mice",
  "conditions": "endpoint: mean survival time, higher = longer survival",
  "outline": "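Read-out is survival time, reported as the treated-group measurement over the vehicle-control measurement.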",
  "note": "Several values for one entry are separate records, joined by “and”; a condition that tells them apart may be missing. Equal values may be shown once. Toxic doses and inconclusive results are not listed. Bridge positions count the residues as written; N and C are the ends. Square brackets hold non-standard residues; d marks the D form. Peptide text beside a SMILES is read from it. NMeV = CN[CH](C(=O)O)C(C)C; Sar = CNCC(=O)O",
  "data": [
    {"smiles": "CC(C)C1NC(=O)C(N)C(C)OC(=O)C(C(C)C)N(C)C(=O)CN(C)C(=O)C2CCCN2C1=O", "note": "(stereo unspecified) (tested in a mixture with another compound) (H-TVP[Sar][NMeV]; ester 1-C; configuration not given here)", "values": [
      {"measurement": "T/C", "setting": "dose: 0.1 mg/kg/injection, schedule: Q01DX001 (ip), vehicle: saline + alcohol", "result": "103 % of control"},
      {"measurement": "T/C", "setting": "dose: 0.2 mg/kg/injection, schedule: Q01DX001 (ip), vehicle: saline + alcohol", "result": "107 % of control"},
      {"measurement": "T/C", "setting": "dose: 0.4 mg/kg/injection, schedule: Q01DX001 (ip), vehicle: saline + alcohol", "result": "124 % of control"},
      {"measurement": "T/C", "setting": "dose: 0.8 mg/kg/injection, schedule: Q01DX001 (ip), vehicle: saline + alcohol", "result": "122 % of control"},
      {"measurement": "T/C", "setting": "dose: 15.6 micrograms/kg/injection, schedule: Q01DX009 (ip), vehicle: other", "result": "95 % of control"},
      {"measurement": "T/C", "setting": "dose: 25.0 micrograms/kg/injection, schedule: Q01DX009 (ip), vehicle: saline + alcohol", "result": "106 % of control"},
      {"measurement": "T/C", "setting": "dose: 31.3 micrograms/kg/injection, schedule: Q01DX009 (ip), vehicle: other", "result": "92 % of control"},
      {"measurement": "T/C", "setting": "dose: 62.5 micrograms/kg/injection, schedule: Q01DX009 (ip), vehicle: other", "result": "97 % of control"},
      {"measurement": "T/C", "setting": "dose: 75.0 micrograms/kg/injection, schedule: Q04DX003 (ip), vehicle: saline + alcohol", "result": "103 % of control"},
      {"measurement": "T/C", "setting": "dose: 125.0 micrograms/kg/injection, schedule: Q01DX009 (ip), vehicle: other", "result": "105 % of control"},
      {"measurement": "T/C", "setting": "dose: 150.0 micrograms/kg/injection, schedule: Q04DX003 (ip), vehicle: saline + alcohol", "result": "106 % of control"},
      {"measurement": "T/C", "setting": "dose: 250.0 micrograms/kg/injection, schedule: Q01DX009 (ip), vehicle: other", "result": "121 % of control"},
      {"measurement": "T/C", "setting": "dose: 300.0 micrograms/kg/injection, schedule: Q04DX003 (ip), vehicle: saline + alcohol", "result": "121 % of control"},
      {"measurement": "T/C", "setting": "dose: 500.0 micrograms/kg/injection, schedule: Q01DX009 (ip), vehicle: other", "result": "103 % of control"},
      {"measurement": "T/C", "setting": "dose: 1200.0 micrograms/kg/injection, schedule: Q04DX003 (ip), vehicle: saline + alcohol", "result": "116 % of control"}
    ]},
    {"smiles": "C[n+]1c(I)ccc2ccccc21", "values": [
      {"measurement": "T/C", "setting": "dose: 100.0 mg/kg/injection, schedule: Q01DX001 (ip), vehicle: other", "result": "105 % of control"},
      {"measurement": "T/C", "setting": "dose: 200.0 mg/kg/injection, schedule: Q01DX001 (ip), vehicle: other", "result": "105 % of control"},
      {"measurement": "T/C", "setting": "dose: 400.0 mg/kg/injection, schedule: Q01DX001 (ip), vehicle: other", "result": "110 % of control"}
    ]},
    {"smiles": "O=C1Nc2ccccc2C1Cc1cc2c(nn1)[nH]c1ccccc12", "note": "(stereo unspecified)", "values": [
      {"measurement": "T/C", "setting": "dose: 12.5 mg/kg/injection, schedule: Q04DX002 (ip), vehicle: Klucel (hydroxypropylcellulose) (HPC)", "result": "95 % of control"},
      {"measurement": "T/C", "setting": "dose: 25.0 mg/kg/injection, schedule: Q04DX002 (ip), vehicle: Klucel (hydroxypropylcellulose) (HPC)", "result": "106 % of control"},
      {"measurement": "T/C", "setting": "dose: 50.0 mg/kg/injection, schedule: Q04DX002 (ip), vehicle: Klucel (hydroxypropylcellulose) (HPC)", "result": "103 % of control"},
      {"measurement": "T/C", "setting": "dose: 100.0 mg/kg/injection, schedule: Q04DX002 (ip), vehicle: Klucel (hydroxypropylcellulose) (HPC)", "result": "122 % of control"},
      {"measurement": "T/C", "setting": "dose: 200.0 mg/kg/injection, schedule: Q04DX002 (ip), vehicle: Klucel (hydroxypropylcellulose) (HPC)", "result": "96 % of control"},
      {"measurement": "T/C", "setting": "dose: 400.0 mg/kg/injection, schedule: Q04DX002 (ip), vehicle: Klucel (hydroxypropylcellulose) (HPC)", "result": "92 % of control"}
    ]},
    {"smiles": "Nc1ccccc1N/N=C/c1ccccc1", "values": [
      {"measurement": "T/C", "setting": "dose: 100.0 mg/kg/injection, schedule: Q01DX001 (ip), vehicle: saline", "result": "101 % of control"},
      {"measurement": "T/C", "setting": "dose: 200.0 mg/kg/injection, schedule: Q01DX001 (ip), vehicle: saline", "result": "101 % of control"},
      {"measurement": "T/C", "setting": "dose: 400.0 mg/kg/injection, schedule: Q01DX001 (ip), vehicle: saline", "result": "94 % of control"}
    ]},
    {"smiles": "C1=CC(OC2C=CCC2)CC1", "note": "(stereo unspecified)", "values": [
      {"measurement": "T/C", "setting": "dose: 25.0 mg/kg/injection, schedule: Q04DX002 (ip), vehicle: saline", "result": "89 % of control"},
      {"measurement": "T/C", "setting": "dose: 50.0 mg/kg/injection, schedule: Q04DX002 (ip), vehicle: saline", "result": "118 % of control"},
      {"measurement": "T/C", "setting": "dose: 100.0 mg/kg/injection, schedule: Q04DX002 (ip), vehicle: saline", "result": "99 % of control"}
    ]},
    {"smiles": "COc1cc(/C=C2\\NC(=O)NC2=O)ccc1O", "values": [
      {"measurement": "T/C", "setting": "dose: 200.0 mg/kg/injection, schedule: Q01DX009 (ip), vehicle: saline with Tween-80", "result": "86 % of control"},
      {"measurement": "T/C", "setting": "dose: 400.0 mg/kg/injection, schedule: Q01DX009 (ip), vehicle: saline with Tween-80", "result": "90 % of control"}
    ]},
    {"smiles": "COc1cc(C=Nc2cc(Cl)c(O)c(Cl)c2)ccc1N(CCCl)CCCl", "values": [
      {"measurement": "T/C", "setting": "dose: 1.4 mg/kg/injection, schedule: Q01DX009 (ip), vehicle: carboxymethylcellulose (CMC)", "result": "113 % of control"},
      {"measurement": "T/C", "setting": "dose: 2.1 mg/kg/injection, schedule: Q01DX009 (ip), vehicle: carboxymethylcellulose (CMC)", "result": "105 % of control"},
      {"measurement": "T/C", "setting": "dose: 5.3 mg/kg/injection, schedule: Q01DX009 (ip), vehicle: carboxymethylcellulose (CMC)", "result": "112 % of control"},
      {"measurement": "T/C", "setting": "dose: 10.0 mg/kg/injection, schedule: Q01DX009 (ip), vehicle: carboxymethylcellulose (CMC)", "result": "171 % of control"},
      {"measurement": "T/C", "setting": "dose: 11.1 mg/kg/injection, schedule: Q01DX001 (ip), vehicle: carboxymethylcellulose (CMC)", "result": "122 % of control"},
      {"measurement": "T/C", "setting": "dose: 12.0 mg/kg/injection, schedule: Q01DX009 (ip), vehicle: carboxymethylcellulose (CMC)", "result": "110 % of control"},
      {"measurement": "T/C", "setting": "dose: 16.6 mg/kg/injection, schedule: Q01DX001 (ip), vehicle: carboxymethylcellulose (CMC)", "result": "116 % of control and 123 % of control"},
      {"measurement": "T/C", "setting": "dose: 18.0 mg/kg/injection, schedule: Q01DX009 (ip), vehicle: carboxymethylcellulose (CMC)", "result": "88 % of control"},
      {"measurement": "T/C", "setting": "dose: 25.0 mg/kg/injection, schedule: Q01DX001 (ip), vehicle: carboxymethylcellulose (CMC)", "result": "122 % of control"}
    ]}
  ]
}
